Assay type in all cases: cell-based
For data set [1], the system named is Human Rhinovirus 14 (HRV14) in H1-HeLa cells. As to the kind of experiment: H1-HeLa HRV-CTG EC50, HRV14 (Example Z). As to conditions: Rhinovirus B, HRV14, 96 h, MOI 1.0, 4 days, Celltiter-Glo, read-out: HRV14 HELA EC50 (nM) (per Ex. Z). The method, boiled down:
(§1)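 H1-HeLa cells (5,000/well) in DMEM with 2% FBS were infected with HRV1B, HRV14 or HRV16 at MOI 0.5, 1.0 and 0.25, respectively, with 10-point 1:3 compound dilutions. After 4 days at 37 °C, viability was read by CellTiter-Glo luminescence. EC50 was the concentration reducing viral replication by 50%, normalized to rupintrivir and DMSO controls.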

In data set [2] the test system is Human Rhinovirus 16 (HRV16) in H1-HeLa cells. As to the kind of experiment: H1-HeLa HRV-CTG EC50, HRV16 (Example Z). As to conditions: Rhinovirus A, HRV16, 96 h, MOI 0.25, 4 days, Celltiter-Glo, read-out: HRV 16 HELA EC50 (nM) (per Ex. Z). The method in brief:
as §1
(In general: Cellular ATP, detected with luciferase, serves as a proxy for viable cell number.)

For data set [3], the system named is Human Rhinovirus 1B (HRV1B) in H1-HeLa cells. As to the kind of experiment: H1-HeLa HRV-CTG EC50, HRV1B (Example Z). The note with it: Rhinovirus A, 96 h, MOI 0.5, 4 days, Celltiter-Glo, read-out: HRV 1B HELA EC50 (nM) (per Ex. Z). The method, boiled down: as §1
A short description of data set [4]: RSV NHBE CC50 384 V2 (per Ex. U). The note with it: human.
Data set [5] is described as follows: RSV HEP2-CC50-384-V2 (per Ex. V). As to conditions: human.

The structures appear in SMILES notation.

Usually EC50 stands for the concentration needed to bring the measured effect to its halfway point. Broadly, the CC50 is the concentration giving 50% cytotoxicity. High values mean better tolerance by the cells, low ones harm at low concentration.

For `CCCCCCCCCCCCCCOC[C@H](COP(=O)(O)OC[C@@]1(C#N)O[C@@H](c2ccc3c(N)ncnn23)[C@H](O)[C@@H]1O)Oc1cc(C#N)ccn1` [Compound 69, ((2R,3S,4R)-5-(4-aminopyrrolo[2,1-f][1,2,4]triazin-7-yl)-2-cyano-3,4-dihydroxytetrahydrofuran-2-yl)methyl ((R)-2-((4-cyanopyridin-2-yl)oxy)-3-(tetradecyloxy)propyl) hydrogen phosphate], the concentration giving a half-maximal response (EC50) was 106 nM in data set [1], 109 nM in data set [2] and 116 nM in data set [3]. Moreover, the figures for the CC50 at 3 days in data set [4] and in data set [5] were 3290 nM and > 50000 nM, respectively.
In the same order, the values of `CCCCCCCCCCCCCCCCCCCC[C@@H](COP(=O)(O)OC[C@@]1(C#N)O[C@@H](c2ccc3c(N)ncnn23)[C@H](O)[C@@H]1O)OCc1cc(F)cc(C#N)c1` [Compound 70, ((2R,3S,4R)-5-(4-aminopyrrolo[2,1-f][1,2,4]triazin-7-yl)-2-cyano-3,4-dihydroxytetrahydrofuran-2-yl)methyl ((S)-2-((3-cyano-5-fluorobenzyl)oxy)docosyl) hydrogen phosphate] are 162 nM, 114 nM, 84 nM, 3950 nM and 43500 nM.
For `CCCCCCCCCCCCCCCCCCOC[C@@H](COP(=O)(O)OC[C@@]1(C#N)O[C@@H](c2ccc3c(N)ncnn23)[C@H](O)[C@@H]1O)Oc1ccc(C#N)nc1` [Compound 72, ((2R,3S,4R,5S)-5-(4-aminopyrrolo[2,1-f][1,2,4]triazin-7-yl)-2-cyano-3,4-dihydroxytetrahydrofuran-2-yl)methyl ((S)-2-((6-cyanopyridin-3-yl)oxy)-3-(octadecyloxy)propyl) hydrogen phosphate] the same measures were 3 nM, 3 nM, 3 nM, 1610 nM and > 49900 nM.
In the same order, the values of `CCCCCCCCCCCCCCCCCCOC[C@H](COP(=O)(O)OC[C@@]1(C#N)O[C@@H](c2ccc3c(N)ncnn23)[C@H](O)[C@@H]1O)OCc1ccc(C#N)cc1OC` [Compound 73, ((2R,3S,4R)-5-(4-aminopyrrolo[2,1-f][1,2,4]triazin-7-yl)-2-cyano-3,4-dihydroxytetrahydrofuran-2-yl)methyl ((R)-2-((4-cyano-2-methoxybenzyl)oxy)-3-(octadecyloxy)propyl) hydrogen phosphate] are 26 nM, 29 nM, 12 nM, 3820 nM and > 47000 nM.
For the molecule `CCCCCCCCCCCCCCCCC[C@@H](COP(=O)(O)OC[C@@]1(C#N)O[C@@H](c2ccc3c(N)ncnn23)[C@H](O)[C@@H]1O)OCc1cc(F)cc(C#N)c1` [Compound 74, ((2R,3S,4R)-5-(4-aminopyrrolo[2,1-f][1,2,4]triazin-7-yl)-2-cyano-3,4-dihydroxytetrahydrofuran-2-yl)methyl ((S)-2-((3-cyano-5-fluorobenzyl)oxy)nonadecyl) hydrogen phosphate], the EC50 is 67 nM in data set [1], 49 nM in data set [2] and 24 nM in data set [3]. Also, the 50% cytotoxic concentration (CC50) at 3 days in data set [4] came out at 1540 nM; in data set [5] it was 28000 nM.
For `CCCCCCCCCCCCCCOC[C@H](COP(=O)(O)OC[C@@]1(C#N)O[C@@H](c2ccc3c(N)ncnn23)[C@H](O)[C@@H]1O)OCc1ccc(C#N)cc1F` [Compound 75, ((2R,3S,4R,5S)-5-(4-aminopyrrolo[2,1-f][1,2,4]triazin-7-yl)-2-cyano-3,4-dihydroxytetrahydrofuran-2-yl)methyl ((R)-2-((4-cyano-2-fluorobenzyl)oxy)-3-(tetradecyloxy)propyl) hydrogen phosphate], the values for the EC50 in data set [1], in data set [2] and in data set [3] were 37 nM, 37 nM and 23 nM, respectively. Further, the CC50 at 3 days is 4620 nM in data set [4] and > 48500 nM in data set [5].
With `CCCCCCCCCCCCCCCC[C@H](COP(=O)(O)OC[C@@]1(C#N)O[C@@H](c2ccc3c(N)ncnn23)[C@H](O)[C@@H]1O)OCc1cc(F)cc(C#N)c1` [Compound 78, ((2R,3S,4R,5S)-5-(4-aminopyrrolo[2,1-f][1,2,4]triazin-7-yl)-2-cyano-3,4-dihydroxytetrahydrofuran-2-yl)methyl ((R)-2-((3-cyano-5-fluorobenzyl)oxy)octadecyl) hydrogen phosphate], the values for the EC50 in data set [1], in data set [2] and in data set [3] were 38 nM, 66 nM and 24 nM, respectively. The values for the CC50 at 3 days in data set [4] and in data set [5] were 1200 nM and 34600 nM, respectively.
For `CCCCCCCCCCCCCCCC[C@@H](COP(=O)(O)OC[C@@]1(C#N)O[C@@H](c2ccc3c(N)ncnn23)[C@H](O)[C@@H]1O)OCc1cc(F)cc(C#N)c1` [Compound 79, ((2R,3S,4R,5S)-5-(4-aminopyrrolo[2,1-f][1,2,4]triazin-7-yl)-2-cyano-3,4-dihydroxytetrahydrofuran-2-yl)methyl ((S)-2-((3-cyano-5-fluorobenzyl)oxy)octadecyl) hydrogen phosphate] the same measures were 38 nM, 70 nM, 25 nM, 2100 nM and 38100 nM.
For `CCCCCCCCCCCCCCC[C@H](COP(=O)(O)OC[C@@]1(C#N)O[C@@H](c2ccc3c(N)ncnn23)[C@H](O)[C@@H]1O)OCc1cc(F)cc(C#N)c1` [Compound 80, ((2R,3S,4R,5S)-5-(4-aminopyrrolo[2,1-f][1,2,4]triazin-7-yl)-2-cyano-3,4-dihydroxytetrahydrofuran-2-yl)methyl ((R)-2-((3-cyano-5-fluorobenzyl)oxy)heptadecyl) hydrogen phosphate], the EC50 in data set [1] is 88 nM; in data set [2] it was 111 nM; in data set [3], 49 nM. Besides, the CC50 at 3 days in data set [4] was 2170 nM; in data set [5] it was > 50000 nM.

Source of the values: patent US20250034182A1, “PHOSPHOLIPID COMPOUNDS AND METHODS OF MAKING AND USING THE SAME” (priority 2021, published 2025).
